According to ChEMBL document CHEMBL1135252, “Design and synthesis of antiangiogenic/heparin-binding arginine dendrimer mimicking the surface of endostatin” (Bioorg Med Chem Lett, 2002):

What was measured:
[1] = species: Gallus gallus; experiment: Antiangiogenic activity in chicken embryo chorioallantoic membrane assay, at 10 ug/CAM was determined; type: functional, tissue-based
[2] = species: Gallus gallus; experiment: Antiangiogenic activity in chicken embryo chorioallantoic membrane assay, at 100 ug/CAM was determined; type: functional, tissue-based
[3] = species: Rattus norvegicus; experiment: Salt concentration required for release from the heparin-agarose column was evaluated to determine the heparin- binding activity to inhibit the growth of rat lung endothelial(RLE) cells

N=C(N)NCCCC(N)C(=O)NC(CCCNC(=N)N)C(=O)NCCCCC(NC(=O)C(CCCNC(=N)N)NC(=O)C(N)CCCNC(=N)N)C(=O)NCCCCC(NC(=O)C(CCCCNC(=O)C(CCCNC(=N)N)NC(=O)C(N)CCCNC(=N)N)NC(=O)C(CCCNC(=N)N)NC(=O)C(N)CCCNC(=N)N)C(=O)NCCCC(NC(=O)NCC(=O)O)NC(=O)C(CCCCNC(=O)C(CCCCNC(=O)C(CCCNC(=N)N)NC(=O)C(N)CCCNC(=N)N)NC(=O)C(CCCNC(=N)N)NC(=O)C(N)CCCNC(=N)N)NC(=O)C(CCCCNC(=O)C(CCCNC(=N)N)NC(=O)C(N)CCCNC(=N)N)NC(=O)C(CCCNC(=N)N)NC(=O)C(N)CCCNC(=N)N (stereo not drawn)
inhibition [1]: 45.4%
inhibition [2]: 70%
NaCl concentration [3]: 1.2 M
